The assay has as its system primary rat mixed cortical cells. Description: In vitro myelination assay (MBP positive myelin strands, fold myelin pixels above background). Type of assay: cell-based. The conditions noted are these: Rattus norvegicus, relative to baseline of no added compound; for fold induction at 1 µM: 1.0 μM compound, read-out: Fold myelin pixels above background, 1.0 μM; for fold induction at 10 µM: 10.0 μM compound, read-out: Fold myelin pixels above background, 10.0 μM. Summed up: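 P1 rat mixed cortical cultures (neurons, OPCs, oligodendrocytes, astrocytes, microglia) grown 14 days at 37 °C with compound, half-medium refreshed with compound on days 6 and 10. Fixed cells stained for MBP; MBP-positive myelin strand pixels per well quantified by automated imaging, reported as fold over no-compound baseline at 1.0 and 10.0 μM.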

For the compound `Cc1cc(Nc2ncn(-c3cncc(C)n3)n2)cc(N2CCN(C3COC3)CC2)c1` [Compound 271, N-[3-methyl-5-[4-(oxetan-3-yl)piperazin-1-yl]phenyl]-1-(6-methylpyrazin-2-yl)-1,2,4-triazol-3-amine], the fold induction at 1 µM is at most 1 and the fold induction at 10 µM was at most 1.

As to `Cc1cc(Nc2ncn(-c3cccc(F)c3)n2)cc(N2CCCC2)c1` [Compound 272, 1-(3-fluorophenyl)-N-(3-methyl-5-pyrrolidin-1-yl-phenyl)-1,2,4-triazol-3-amine], the fold induction at 1 µM fell in the range of 10 to 100 and the fold induction at 10 µM is at most 1.

As for `Cc1cc(Nc2ncn(-c3ccccc3)n2)cc(C2CCN(CC(F)F)C2)c1` (stereo not shown) [Compound 273, N-[3-[1-(2,2-difluoroethyl)pyrrolidin-3-yl]-5-methyl-phenyl]-1-phenyl-1,2,4-triazol-3-amine], the fold induction at 1 µM fell in the range of 1000 to 10000 and the fold induction at 10 µM was at most 1.

On to `CCN1CCN(c2cc(C)cc(Nc3ncn(-c4ccccc4)n3)c2)CC1` [Compound 274, N-[3-(4-ethylpiperazin-1-yl)-5-methyl-phenyl]-1-phenyl-1,2,4-triazol-3-amine], for which the fold induction at 1 µM was in the range of 1000 to 10000 and the fold induction at 10 µM lay in the range of 1 to 10.

For the compound `Cc1cc(Nc2ncn(-c3cccnc3)n2)cc(N2CCN(C3COC3)CC2)c1` [Compound 275, N-[3-methyl-5-[4-(oxetan-3-yl)piperazin-1-yl]phenyl]-1-(3-pyridyl)-1,2,4-triazol-3-amine], the fold induction at 1 µM fell in the range of 10 to 100 and the fold induction at 10 µM lay in the range of 100 to 1000.

As to `CCc1cc(Nc2ncn(-c3cccc(F)c3F)n2)cc(N2CCN(C3COC3)CC2)c1` [Compound 276, 1-(2,3-difluorophenyl)-N-[3-ethyl-5-[4-(oxetan-3-yl)piperazin-1-yl]phenyl]-1,2,4-triazol-3-amine], the fold induction at 1 µM is at most 1 and the fold induction at 10 µM is 1 to 10.

Take `COc1nccc(-n2cnc(Nc3cc(C4CC4)cc(N4CCN(C5COC5)CC4)c3)n2)n1` [Compound 277, N-[3-cyclopropyl-5-[4-(oxetan-3-yl)piperazin-1-yl]phenyl]-1-(2-methoxypyrimidin-4-yl)-1,2,4-triazol-3-amine]: the fold induction at 1 µM was in the range of 10 to 100 and the fold induction at 10 µM lay within 100 to 1000.

As for `Cc1cc(Nc2ncn(-c3ccc(F)c(F)c3)n2)cc(NC2CCN(C3COC3)CC2)c1` [Compound 278, N3-[1-(3,4-difluorophenyl)-1,2,4-triazol-3-yl]-5-methyl-N1-[1-(oxetan-3-yl)-4-piperidyl]benzene-1,3-diamine], the fold induction at 1 µM lay within 100 to 1000 and the fold induction at 10 µM fell in the range of 1 to 10.

For `Cc1cc(Nc2ncn(-c3cc(F)cc(F)c3)n2)cc(N2CCC3(CC2)COC3)c1` [Compound 279, 1-(3,5-difluorophenyl)-N-[3-methyl-5-(2-oxa-7-azaspiro[3.5]nonan-7-yl)phenyl]-1,2,4-triazol-3-amine], the fold induction at 1 µM was 100 to 1000 and the fold induction at 10 µM was 100 to 1000.

As to `CC(=O)N1CCCN(c2cc(C)cc(Nc3ncn(-c4ccccc4)n3)c2)CC1` [Compound 280, 1-[4-[3-methyl-5-[(1-phenyl-1,2,4-triazol-3-yl)amino]phenyl]-1,4-diazepan-1-yl]ethanone], the fold induction at 1 µM lay in the range of 1000 to 10000 and the fold induction at 10 µM lay within 10 to 100.

In the case of `Cc1cc(Nc2ncn(-c3cccc(C#N)c3)n2)cc(N2CCCC2)c1` [Compound 281, 3-[3-(3-methyl-5-pyrrolidin-1-yl-anilino)-1,2,4-triazol-1-yl]benzonitrile], the fold induction at 1 µM was 1 to 10 and the fold induction at 10 µM was at most 1.

As for `NC1CN(c2cc(F)cc(Nc3ncn(-c4ccc(F)cc4F)n3)c2)C1` [Compound 283, N-[3-(3-aminoazetidin-1-yl)-5-fluoro-phenyl]-1-(2,4-difluorophenyl)-1,2,4-triazol-3-amine], the fold induction at 1 µM was at most 1 and the fold induction at 10 µM was at most 1.

Regarding `Cc1cc(Nc2ncn(-c3cc(F)cc(F)c3)n2)cc(N2CCC(N3CCOCC3)C2)c1` (stereo not shown) [Compound 284, 1-(3,5-difluorophenyl)-N-[3-methyl-5-(3-morpholinopyrrolidin-1-yl)phenyl]-1,2,4-triazol-3-amine], the fold induction at 1 µM lay within 1 to 10 and the fold induction at 10 µM was 1 to 10.

For the compound `CC(C)Oc1cc(F)cc(-n2cnc(Nc3cc(C4CC4)cc(N4CCN(C5COC5)CC4)c3)n2)c1` [Compound 285, N-[3-cyclopropyl-5-[4-(oxetan-3-yl)piperazin-1-yl]phenyl]-1-(3-fluoro-5-isopropoxy-phenyl)-1,2,4-triazol-3-amine], the fold induction at 1 µM was in the range of 1 to 10 and the fold induction at 10 µM was in the range of 10 to 100.

On to `CCOc1nccc(-n2cnc(Nc3cc(C4CC4)cc(N4CCN(C5COC5)CC4)c3)n2)n1` [Compound 286, N-[3-cyclopropyl-5-[4-(oxetan-3-yl)piperazin-1-yl]phenyl]-1-(2-ethoxypyrimidin-4-yl)-1,2,4-triazol-3-amine], for which the fold induction at 1 µM lay in the range of 100 to 1000 and the fold induction at 10 µM was in the range of 100 to 1000.

Turning to `Cc1cc(Nc2ncn(-c3cccc(C(F)(F)F)c3)n2)cc(N2CCN(C3COC3)CC2)c1` [Compound 287, N-[3-methyl-5-[4-(oxetan-3-yl)piperazin-1-yl]phenyl]-1-[3-(trifluoromethyl)phenyl]-1,2,4-triazol-3-amine], the fold induction at 1 µM fell in the range of 100 to 1000 and the fold induction at 10 µM is 100 to 1000.

In the case of `CC(C)(C)c1cc(Nc2ncn(-c3cnccn3)n2)cc(N2CCN(C3COC3)CC2)c1` [Compound 288, N-[3-tert-butyl-5-[4-(oxetan-3-yl)piperazin-1-yl]phenyl]-1-pyrazin-2-yl-1,2,4-triazol-3-amine], the fold induction at 1 µM was 1000 to 10000 and the fold induction at 10 µM is 1000 to 10000.

As to `Cc1cc(Nc2ncn(-c3ccccc3)n2)cc(N2CCN(C3CCOCC3)CC2)c1` [Compound 289, N-[3-methyl-5-(4-tetrahydropyran-4-ylpiperazin-1-yl)phenyl]-1-phenyl-1,2,4-triazol-3-amine], the fold induction at 1 µM lay within 1000 to 10000 and the fold induction at 10 µM was 1 to 10.

Take `Cc1cc(Nc2ncn(-c3ccccc3)n2)cc(N2CCN(C3CCC3)CC2)c1` [Compound 290, N-[3-(4-cyclobutylpiperazin-1-yl)-5-methyl-phenyl]-1-phenyl-1,2,4-triazol-3-amine]: the fold induction at 1 µM fell in the range of 1000 to 10000 and the fold induction at 10 µM was in the range of 1000 to 10000.

Regarding `Cc1cc(Nc2ncn(-c3ncncc3F)n2)cc(N2CCN(C3COC3)CC2)c1` [Compound 291, 1-(5-fluoropyrimidin-4-yl)-N-[3-methyl-5-[4-(oxetan-3-yl)piperazin-1-yl]phenyl]-1,2,4-triazol-3-amine], the fold induction at 1 µM was at most 1 and the fold induction at 10 µM fell in the range of 1 to 10.

On to `Cc1cc(Nc2ncn(-c3ccccc3)n2)cc(N2C[C@@H]3C[C@H]2CN3C2CC2)c1` [Compound 292, N-[3-[(1S,4S)-2-cyclopropyl-2,5-diazabicyclo[2.2.1]heptan-5-yl]-5-methyl-phenyl]-1-phenyl-1,2,4-triazol-3-amine], for which the fold induction at 1 µM lay within 100 to 1000 and the fold induction at 10 µM lay in the range of 10 to 100.

On to `COC1CCCN(c2cc(C)cc(Nc3ncn(-c4cc(F)cc(F)c4)n3)c2)C1` (stereo not shown) [Compound 293, 1-(3,5-difluorophenyl)-N-[3-(3-methoxy-1-piperidyl)-5-methyl-phenyl]-1,2,4-triazol-3-amine], for which the fold induction at 1 µM lay within 10 to 100 and the fold induction at 10 µM was in the range of 10 to 100.

Turning to `Cc1cc(Nc2ncn(-c3ccccc3)n2)cc(C2CCN(C3(C)COC3)CC2)c1` [Compound 294, N-[3-methyl-5-[1-(3-methyloxetan-3-yl)-4-piperidyl]phenyl]-1-phenyl-1,2,4-triazol-3-amine], the fold induction at 1 µM lay in the range of 1000 to 10000 and the fold induction at 10 µM lay within 1000 to 10000.

Consider `Cc1cc(Nc2ncn(-c3cc(F)cc(F)c3)n2)cc(C2CNC(=O)O2)c1` (stereo not shown) [Compound 295, 5-[3-[[1-(3,5-difluorophenyl)-1,2,4-triazol-3-yl]amino]-5-methyl-phenyl]oxazolidin-2-one], for which the fold induction at 1 µM is 10 to 100 and the fold induction at 10 µM was 1 to 10.

For `F[C@@H]1CCN(c2cc(Nc3ncn(-c4ccccc4)n3)cc(C3CC3)n2)C1` [Compound 296, 2-cyclopropyl-6-[(3R)-3-fluoropyrrolidin-1-yl]-N-(1-phenyl-1,2,4-triazol-3-yl)pyridin-4-amine], the fold induction at 1 µM fell in the range of 100 to 1000 and the fold induction at 10 µM is 10 to 100.

Take `Cc1cc(Nc2ncn(-c3cccnc3)n2)cc(N2CCN(C)CC2)c1` [Compound 297, N-[3-methyl-5-(4-methylpiperazin-1-yl)phenyl]-1-(3-pyridyl)-1,2,4-triazol-3-amine]: the fold induction at 1 µM is 10 to 100 and the fold induction at 10 µM is 10 to 100.

For `Fc1cc(F)cc(-n2cnc(Nc3cc(C4=CCOC4)cc(N4CCOCC4)c3)n2)c1` [Compound 298, 1-(3,5-difluorophenyl)-N-[3-(2,5-dihydrofuran-3-yl)-5-morpholino-phenyl]-1,2,4-triazol-3-amine], the fold induction at 1 µM lay within 1000 to 10000 and the fold induction at 10 µM lay within 100 to 1000.

As to `COCC1CCN(c2cc(C)cc(Nc3ncn(-c4ccc(F)c(F)c4)n3)c2)CC1` [Compound 299, 1-(3,4-difluorophenyl)-N-[3-[4-(methoxymethyl)-1-piperidyl]-5-methyl-phenyl]-1,2,4-triazol-3-amine], the fold induction at 1 µM was in the range of 100 to 1000 and the fold induction at 10 µM lay in the range of 10 to 100.

On to `CC(=O)N1CCCC(c2cc(C)cc(Nc3ncn(-c4cnccn4)n3)c2)C1` (stereo not shown) [Compound 300, 1-[3-[3-methyl-5-[(1-pyrazin-2-yl-1,2,4-triazol-3-yl)amino]phenyl]-1-piperidyl]ethanone], for which the fold induction at 1 µM was in the range of 100 to 1000 and the fold induction at 10 µM was at most 1.

The values above are taken from patent US10766869B2, “Triazoles for the treatment of demyelinating dieases” (Vertex Pharmaceuticals Incorporated, priority 2015, dated 2020).
